Values after ≈ are worked out from the molar mass of the structure shown.
Assays:
E. coli = assay: microbe, parasite or virus in culture; conditions: for Antibacterial MIC E. Coli: serial two-fold dilutions, IA = Inactive
Method: (§1) Compounds were tested using E. coli, G. vaginalis or S. aureus. Bacteria were grown on appropriate media containing a range of concentrations of the test compounds which were obtained by serial two-fold dilutions. Concentrations used were at least twice the MIC to at least ½ the break point for susceptibility to inhibition. MICs were determined spectrophotometrically by measuring changes in absorbance of bacterial cultures in the absence and presence of the test compounds.

G. vaginalis = assay: Antibacterial MIC, G. vaginalis; assay type: cell-based, Gardnerella vaginalis; conditions: serial two-fold dilutions, IA = Inactive
Method: as §1

[1] = test system: nitric oxide production induced by gamma interferon in PAM212 keratinocytes; conditions: read-out: Nitric oxide inhibition IC50, 100 U/ml gamma interferon, nitrite at 72 hours
Method: The assay for measurement of anti-inflammatory activity is based on the ability of the cytokine gamma interferon to induce the formation of nitric oxide synthase and subsequently of nitric oxide itself in keratinocytes.
For each assay the cells were inoculated into a 24-well tissue culture plate at 250,000 cells per well in growth medium. After 24 hours the medium was changed to phenol red and serum-free DMEM containing 100 U/ml of gamma interferon. Nitric oxide production was thereby initiated and at 72 hours post inoculation was quantified spectrophotometrically by measuring the accumulation of nitrite in the culture medium using the Greiss reagent. This was done by drawing an aliquot of the culture medium and mixing it with equal volumes of 1.0% sulfanilamide and 0.1% N-1-naphthylethylene diamine in 50% phosphoric acid. […] Compounds according to the present invention were assayed for their anti-inflammatory activity by examining their ability to suppress nitric oxide production in this assay.

Row | Structure (SMILES) | Antibacterial MIC E. Coli (E. coli) [µg/mL] | Antibacterial MIC G. Vaginalis (G. vaginalis) [µg/mL] | MIC (E. coli; Escherichia coli, read-out: Antibacterial MIC E. Coli) [µg/mL] | MIC (G. vaginalis; Gardnerella vaginalis) [µg/mL] | IC50 [1] [µM]
1 | O=[N+]([O-])c1ccc(C=Nn2c(S)nnc2-c2cccs2)o1 [Compound 3d] | 16.0 | 3.2 | – | – | –
2 | O=[N+]([O-])c1ccc(C=CC=Nn2c(S)nnc2-c2ccco2)o1 [Compound 3c, 4-[imino-(3-(5-nitro-2-furyl)-2-ethylenyl)]-3-mercapto-5-(2-furoyl)-4H-1,2,4-triazole] | 16.6 | 16.6 | – | – | –
3 | O=C1CN(/N=C/c2ccc([N+](=O)[O-])o2)C(=O)N1 [NF, Nitrofurantoin, reference compound] | – | – | 1.2 (≈ 5.04 µM) | 11.9 (≈ 50 µM) | –
4 | O=[N+]([O-])c1ccccc1C=CC=Nn1c(S)nnc1-c1cccs1 [Compound 3a, 4-[Imino-(3-(−2-nitrophenyl)-2-ethylenyl)]-3-mercapto-5-(2-thienyl)-4H-1,2,4-triazole] | – | – | – | – | 14
